Experimental data reported in patent publication US5264430A, “2-spirocyclopropyl cephalosporin sulfone derivatives” (SynPhar Laboratories, Inc., priority 1991, dated 1993).
pIC50: −log10 of the molar value.

Columns and labels:
[1] = molecular target: T1, human leukocyte elastase (HLE) (Homo sapiens, UniProt P08246); experiment: Enzyme assay for inhibition of HLE (Table I, activity against ILE); assay type: biochemical; conditions: HLE 10 nM, 10 minute preincubation, pH 7.6, 30° C.
T1 construct: Purified elastase from human white blood cells; from tissue; host or cells: human white blood cells
T1 sequence (P08246 30-247 limits assumed): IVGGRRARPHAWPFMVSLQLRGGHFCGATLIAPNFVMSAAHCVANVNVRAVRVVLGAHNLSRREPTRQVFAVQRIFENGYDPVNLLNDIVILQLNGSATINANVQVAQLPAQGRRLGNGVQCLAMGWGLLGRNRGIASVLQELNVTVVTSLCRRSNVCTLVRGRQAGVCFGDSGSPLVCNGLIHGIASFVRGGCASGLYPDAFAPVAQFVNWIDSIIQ
Experimental: Enzyme Assay for Inhibition of HLE
Enzyme: Purified elastase from human white blood cells.
MeO-succinyl-L-alanyl-L-alanyl-L-propyl-L-valine-p-nitroanilide (NA)
10 mM phosphate buffer (pH 7.6)
10% dimethylsulfoxide (DMSO)
The enzyme activity was determined by monitoring the increase in absorbance at […] caused by the hydrolysis of chromogenic substrates. Inhibition of enzyme by the compounds described were determined after a 10 minute preincubation with the enzyme in reaction mixture minus substrate. Reaction was initiated by the addition of substrate. The concentration of human leukocyte elastase used for assay was at 10 nM.
HLE, CTG, PPE, and CTD were tested at 30° C. and the others were […]

cathepsin G = molecular target: T2, cathepsin G (Homo sapiens, UniProt P08311); experiment: Selectivity against various proteases: cathepsin G (CTG); assay type: biochemical; conditions: cathepsin G 50 nM, human white blood cells, pH 7.5, 30° C., 10 minute preincubation
T2 construct: Purified Cathepsin G from human white blood cells; from tissue; host or cells: human white blood cells
T2 sequence (P08311 21-244 limits assumed): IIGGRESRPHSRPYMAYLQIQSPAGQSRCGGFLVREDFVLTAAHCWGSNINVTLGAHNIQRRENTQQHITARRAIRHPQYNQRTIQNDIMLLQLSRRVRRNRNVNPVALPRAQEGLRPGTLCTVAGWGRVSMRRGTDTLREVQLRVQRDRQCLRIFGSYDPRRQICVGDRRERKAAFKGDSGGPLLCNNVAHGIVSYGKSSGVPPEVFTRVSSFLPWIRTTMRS
Experimental: Reaction mixture: […] 500 mM NaCl […] 2.0 mM Substrate Except for Cathepsin D, the enzyme activities were determined by monitoring the increase in absorbance at 410 nm caused by the hydrolysis of chromogenic substrates. The activity of Cathepsin D was determined by monitoring the absorbance of 5% trichloroacetic acid-soluble material at 280 nm. Inhibition of enzymes by the compounds described were determined after a 10 minute preincubation with enzymes in reaction mixtures minus substrate. Reactions were initiated by the addition of substrates. The concentration used for assays were porcine pancreatic elastase at 240 nM and human Cathepsin G at 50 nM. Cathepsin D was used at the concentration that produced approximately 0.15 O.D. increase per 20 min at 280 nm under the standard conditions. All other proteases were assayed at the concentrations that produced approximately 0.1 O.D. change per minute at 410 nm under the standard conditions.

pIC50 [1]: 8.47
pIC50 (cathepsin G): 4.79
Structure (SMILES): CC1=C(C(=O)OC(c2ccccc2)c2ccccc2)N2C(=O)[C@H](Br)[C@H]2S(=O)(=O)C12CC2(c1ccccc1)c1ccccc1 (single isomer, unassigned) [Example 2, benzhydryl 7α-bromo-2-spiro(2', 2'-diphenyl) cyclopropyl-3-methyl-3-cephem-4-carboxylate-1,1-dioxide]
